In patent US20230212171A1, “ALLOSTERIC EGFR INHIBITORS AND METHODS OF USE THEREOF” (Dana-Farber Cancer Institute, Inc., priority 2020, published 2023):
Counter-ions that a name gives are not always drawn.

Columns and labels:
EGFR L858R/T790M = EGFR L858R/T790M (Homo sapiens, UniProt P00533, L858R/T790M); test: HTRF-based EGFR biochemical assay (L858R/T790M); conditions: enzyme 0.02 nM, ATP 100 µM, 30 min preincubation
Method: (§1) EGFR biochemical activity measurements were carried out using the homogeneous time-resolved fluorescence (HTRF) assay (Cisbio). Inhibitors and DMSO normalizations were first dispensed to empty black low-volume 384-well plates (Corning) with D300 digital liquid dispenser (HP). All reactions were carried out at room temperature and solutions were added to plates with a Multidrop Combi Reagent Dispenser (ThermoFisher). The reaction mixture (10 µL final volume) contained 1 µM tyrosine kinase peptide-biotin substrate and mutant EGFR in a reaction buffer (50 mM HEPES pH 7.0, 5 mM MgCl2, 1 mM MnCl2, 0.01% BSA, 2 mM TCEP, 0.1 mM NaVO4). Enzyme concentrations were adjusted to accommodate varying kinase activities (L858R 0.1 nM, L858R/T790M 0.02 nM). Enzyme reaction solution (2× concentrations, 5 µL) was added to 384-well plates containing compounds and incubated for 30 mins. Enzyme reactions were initiated with the addition of 5 µL of ATP to a final concentration of 100 µM and reacted for 20 mins. Reactions were quenched with the addition of 10 µL of phospho-tyrosine antibody-Europium(III) cryptate (1-to-180 volume ratio) and Streptavidin-XL665 (46.7 nM) in EDTA-containing detection buffer, then incubated at room temperature for 1 hour, and read with a PHERAstar plate reader (excitation = 337 nm, emission = 620 nm and 665 nm). IC50 values were determined by inhibition curves (11-point curves from 1.0 µM to 0.130 nM or 23-point curves from 1.0 µM to 0.130 pM) in triplicate with non-linear least squares fit in GraphPad Prism 7.0d.

EGFR L858R = EGFR L858R (Homo sapiens, UniProt P00533, L858R); test: HTRF-based EGFR biochemical assay (L858R); conditions: enzyme 0.1 nM, ATP 100 µM, 30 min preincubation
Sequence of EGFR L858R (P00533 25-1210 L858R): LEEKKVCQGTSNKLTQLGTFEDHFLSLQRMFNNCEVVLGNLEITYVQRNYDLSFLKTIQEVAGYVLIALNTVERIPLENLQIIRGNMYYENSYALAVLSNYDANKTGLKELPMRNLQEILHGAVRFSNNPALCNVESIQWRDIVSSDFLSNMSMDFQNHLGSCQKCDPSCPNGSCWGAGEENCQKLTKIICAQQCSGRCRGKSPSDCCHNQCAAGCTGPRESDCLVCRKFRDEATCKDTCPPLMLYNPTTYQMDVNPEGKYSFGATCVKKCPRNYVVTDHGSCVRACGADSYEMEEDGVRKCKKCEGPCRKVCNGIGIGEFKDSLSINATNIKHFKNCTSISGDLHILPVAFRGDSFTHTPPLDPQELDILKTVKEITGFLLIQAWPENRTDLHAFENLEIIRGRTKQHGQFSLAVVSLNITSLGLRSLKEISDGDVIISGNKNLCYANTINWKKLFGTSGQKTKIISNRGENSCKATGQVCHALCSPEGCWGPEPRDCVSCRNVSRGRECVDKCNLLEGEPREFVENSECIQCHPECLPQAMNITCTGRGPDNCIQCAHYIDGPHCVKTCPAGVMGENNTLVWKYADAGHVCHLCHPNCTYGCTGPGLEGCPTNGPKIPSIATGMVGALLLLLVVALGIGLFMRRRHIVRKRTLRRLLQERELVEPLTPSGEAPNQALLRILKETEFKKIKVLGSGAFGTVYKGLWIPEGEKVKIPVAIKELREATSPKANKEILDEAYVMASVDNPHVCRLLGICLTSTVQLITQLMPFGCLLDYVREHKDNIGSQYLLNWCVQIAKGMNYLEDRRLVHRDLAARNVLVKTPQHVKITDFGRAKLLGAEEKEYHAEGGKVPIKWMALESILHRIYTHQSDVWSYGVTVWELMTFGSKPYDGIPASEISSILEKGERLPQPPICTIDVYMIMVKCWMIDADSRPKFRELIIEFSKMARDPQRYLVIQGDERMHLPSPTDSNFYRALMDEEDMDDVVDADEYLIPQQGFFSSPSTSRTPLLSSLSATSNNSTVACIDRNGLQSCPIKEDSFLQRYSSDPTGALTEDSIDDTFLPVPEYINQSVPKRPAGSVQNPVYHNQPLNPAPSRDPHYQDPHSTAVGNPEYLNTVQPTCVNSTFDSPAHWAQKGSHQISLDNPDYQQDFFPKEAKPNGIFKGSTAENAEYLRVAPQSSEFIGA
Method: as §1

[1] = target: EGFR mutant L858R/T790M Ba/F3 cells (Homo sapiens, UniProt P00533, T790M/L858R, cells depend on it); test: Ba/F3 cell proliferation model (Cell Titer Glo), EGFR L858R/T790M; type: cell-based, murine; conditions: single agent, 72 hours; read-out: Cell IC50 BaF3 EGFR L858R/T790M
Sequence of EGFR mutant L858R/T790M Ba/F3 cells (P00533 whole entry T790M/L858R): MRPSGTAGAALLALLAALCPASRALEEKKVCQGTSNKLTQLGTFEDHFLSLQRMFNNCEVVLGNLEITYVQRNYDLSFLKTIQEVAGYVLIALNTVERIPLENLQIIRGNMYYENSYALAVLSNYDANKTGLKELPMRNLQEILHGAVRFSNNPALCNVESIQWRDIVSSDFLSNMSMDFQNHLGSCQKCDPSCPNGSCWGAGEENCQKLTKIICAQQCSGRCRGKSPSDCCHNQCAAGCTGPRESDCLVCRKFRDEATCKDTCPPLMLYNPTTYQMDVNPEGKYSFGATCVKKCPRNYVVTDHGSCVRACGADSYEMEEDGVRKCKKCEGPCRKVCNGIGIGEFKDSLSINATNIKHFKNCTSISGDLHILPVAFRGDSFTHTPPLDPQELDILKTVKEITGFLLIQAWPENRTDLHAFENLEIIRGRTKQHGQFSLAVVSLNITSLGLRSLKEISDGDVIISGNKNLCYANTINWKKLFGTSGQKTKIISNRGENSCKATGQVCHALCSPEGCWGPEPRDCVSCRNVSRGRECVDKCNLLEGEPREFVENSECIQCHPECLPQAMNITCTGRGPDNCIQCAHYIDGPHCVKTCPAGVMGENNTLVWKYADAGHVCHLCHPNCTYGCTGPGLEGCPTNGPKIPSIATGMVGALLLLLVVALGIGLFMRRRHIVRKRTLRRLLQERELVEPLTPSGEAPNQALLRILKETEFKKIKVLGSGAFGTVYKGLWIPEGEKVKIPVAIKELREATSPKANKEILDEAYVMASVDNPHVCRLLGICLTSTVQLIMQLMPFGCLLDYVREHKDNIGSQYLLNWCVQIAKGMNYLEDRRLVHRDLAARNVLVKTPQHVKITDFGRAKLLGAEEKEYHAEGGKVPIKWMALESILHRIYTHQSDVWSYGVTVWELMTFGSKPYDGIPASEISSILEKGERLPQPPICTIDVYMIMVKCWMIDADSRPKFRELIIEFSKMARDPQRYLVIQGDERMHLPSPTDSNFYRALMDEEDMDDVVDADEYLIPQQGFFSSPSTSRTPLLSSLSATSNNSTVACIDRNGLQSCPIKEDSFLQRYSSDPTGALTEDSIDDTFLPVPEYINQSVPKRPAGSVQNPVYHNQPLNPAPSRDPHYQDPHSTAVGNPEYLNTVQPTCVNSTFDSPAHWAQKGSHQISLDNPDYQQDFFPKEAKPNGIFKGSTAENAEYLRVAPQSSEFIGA
Excerpt: (§2) The EGFR mutant L858R and L858R/T790M Ba/F3 cells have been previously described (Zhou, W., et al. Nature 462, 2009, 1070-1074). All cell lines were maintained in RPMI 1640 (Cellgro; Mediatech Inc., Herndon, CA) supplemented with 10% FBS, 100 units/mL penicillin, 100 units/mL streptomycin. The EGFR I941R mutation was introduced via site directed mutagenesis using the Quick Change Site-Directed Mutagenesis kit (Stratagene; La Jolla, CA) according to the manufacturer’s instructions. All constructs were confirmed by DNA sequencing. The constructs were shuttled into the retroviral vector JP1540 using the Cre-recombination system (Agilent Technologies, Santa Clara, CA). Ba/F3 cells were then infected with retrovirus per standard protocols, as described previously (Zhou, et al, Nature 2009). Stable clones were obtained by selection in puromycin (2 µg/ml).
(§3) Growth and inhibition of growth was assessed by the Cell Titer Glo assay (Promega, Madison, WI) and was performed according to the manufacturer’s instructions. The Cell Titer Glo assay is a luminescence-based method used to determine the number of viable cells based on quantitation of the ATP present, which is directly proportional to the amount of metabolically active cells present. Ba/F3 cells of different EGFR genotypes were exposed to compounds as a single agent or in combination with 1 µg/mL cetuximab for 72 hours and the number of cells used per experiment was determined empirically as has been previously established (Zhou, et al., Nature 2009). All experimental points were set up in triplicates in 384-well plates and all experiments were repeated at least three times. […] The curves were fitted using a non-linear regression model with a sigmoidal dose response.

[2] = target: EGFR mutant L858R Ba/F3 cells (Homo sapiens, UniProt P00533, L858R, cells depend on it); test: Ba/F3 cell proliferation model (Cell Titer Glo), EGFR L858R; type: cell-based, murine; conditions: single agent, 72 hours; read-out: Cell ICso BaF3 EGFR L858R
Sequence of EGFR mutant L858R Ba/F3 cells (P00533 whole entry L858R): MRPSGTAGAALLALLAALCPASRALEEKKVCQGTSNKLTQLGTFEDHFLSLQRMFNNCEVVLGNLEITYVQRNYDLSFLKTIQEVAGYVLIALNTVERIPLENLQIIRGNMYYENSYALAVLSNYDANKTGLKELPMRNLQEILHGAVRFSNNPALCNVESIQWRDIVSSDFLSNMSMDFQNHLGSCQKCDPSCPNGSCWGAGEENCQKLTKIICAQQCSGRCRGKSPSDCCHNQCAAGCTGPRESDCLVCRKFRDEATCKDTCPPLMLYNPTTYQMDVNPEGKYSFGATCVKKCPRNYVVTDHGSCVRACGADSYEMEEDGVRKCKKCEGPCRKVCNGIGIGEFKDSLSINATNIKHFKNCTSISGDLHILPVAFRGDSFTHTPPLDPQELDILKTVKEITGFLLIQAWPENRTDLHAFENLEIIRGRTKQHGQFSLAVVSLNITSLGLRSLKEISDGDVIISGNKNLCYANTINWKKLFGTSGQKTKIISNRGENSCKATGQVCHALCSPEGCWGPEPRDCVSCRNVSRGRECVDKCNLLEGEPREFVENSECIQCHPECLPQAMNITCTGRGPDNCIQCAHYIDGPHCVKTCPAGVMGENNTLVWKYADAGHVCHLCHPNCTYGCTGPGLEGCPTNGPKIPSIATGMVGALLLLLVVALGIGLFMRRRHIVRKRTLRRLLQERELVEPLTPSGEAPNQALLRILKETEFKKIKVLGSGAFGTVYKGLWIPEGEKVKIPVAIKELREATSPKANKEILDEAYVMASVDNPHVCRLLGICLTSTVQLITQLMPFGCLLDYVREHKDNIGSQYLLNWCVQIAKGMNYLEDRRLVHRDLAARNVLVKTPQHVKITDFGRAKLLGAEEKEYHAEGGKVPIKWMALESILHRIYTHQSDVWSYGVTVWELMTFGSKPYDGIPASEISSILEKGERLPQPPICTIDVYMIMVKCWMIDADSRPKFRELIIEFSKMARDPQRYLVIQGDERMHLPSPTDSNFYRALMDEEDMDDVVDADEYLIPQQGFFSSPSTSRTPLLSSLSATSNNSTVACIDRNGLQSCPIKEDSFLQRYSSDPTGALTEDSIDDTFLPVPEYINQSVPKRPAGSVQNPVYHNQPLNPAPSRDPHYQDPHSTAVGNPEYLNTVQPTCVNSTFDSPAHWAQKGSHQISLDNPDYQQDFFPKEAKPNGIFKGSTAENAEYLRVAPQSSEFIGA
Excerpt: as §2, §3

Sequence of EGFR L858R/T790M (P00533 25-1210 T790M/L858R): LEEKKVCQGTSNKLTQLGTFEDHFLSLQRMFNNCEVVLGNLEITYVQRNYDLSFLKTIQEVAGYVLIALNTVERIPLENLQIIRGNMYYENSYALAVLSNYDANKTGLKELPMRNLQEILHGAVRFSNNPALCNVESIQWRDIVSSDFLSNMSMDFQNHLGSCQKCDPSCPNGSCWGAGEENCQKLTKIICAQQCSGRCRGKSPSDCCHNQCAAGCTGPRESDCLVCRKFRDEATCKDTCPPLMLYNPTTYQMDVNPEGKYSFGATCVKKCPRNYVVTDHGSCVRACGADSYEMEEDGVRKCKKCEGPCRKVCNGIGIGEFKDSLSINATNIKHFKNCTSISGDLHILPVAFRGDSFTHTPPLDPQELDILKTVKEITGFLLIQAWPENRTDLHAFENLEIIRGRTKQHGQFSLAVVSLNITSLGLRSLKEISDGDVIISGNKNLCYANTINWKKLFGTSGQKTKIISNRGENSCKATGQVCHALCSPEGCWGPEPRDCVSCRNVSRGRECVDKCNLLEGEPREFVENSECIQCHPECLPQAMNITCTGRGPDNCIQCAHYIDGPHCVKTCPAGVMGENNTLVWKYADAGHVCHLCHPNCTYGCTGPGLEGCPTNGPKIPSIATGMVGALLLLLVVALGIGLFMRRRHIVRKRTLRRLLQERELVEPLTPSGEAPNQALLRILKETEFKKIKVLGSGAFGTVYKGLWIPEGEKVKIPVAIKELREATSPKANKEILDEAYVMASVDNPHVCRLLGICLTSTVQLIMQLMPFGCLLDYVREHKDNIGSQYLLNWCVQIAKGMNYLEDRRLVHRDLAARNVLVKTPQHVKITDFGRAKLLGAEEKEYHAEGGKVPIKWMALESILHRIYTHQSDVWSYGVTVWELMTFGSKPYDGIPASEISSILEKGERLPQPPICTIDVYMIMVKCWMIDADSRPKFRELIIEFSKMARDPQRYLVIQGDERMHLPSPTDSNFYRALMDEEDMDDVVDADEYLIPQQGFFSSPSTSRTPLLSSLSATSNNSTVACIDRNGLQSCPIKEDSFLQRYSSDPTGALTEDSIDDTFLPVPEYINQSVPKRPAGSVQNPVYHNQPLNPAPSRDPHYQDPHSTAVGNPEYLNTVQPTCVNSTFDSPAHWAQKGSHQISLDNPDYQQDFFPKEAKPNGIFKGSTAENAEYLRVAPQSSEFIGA

Row | Compound | IC50 (EGFR L858R/T790M) [nM] | IC50 (EGFR L858R) [nM] | GI50 [1] [nM] | GI50 [2] [nM]
1 | CN1CCC(c2ccc(-c3cc4c(s3)C(=O)N(C(c3nc5ccccc5[nH]3)c3cc(F)ccc3O)CC4)cc2)CC1 (stereo not drawn) [Compound 011, 6-[1H-benzimidazol-2-yl-(5-fluoro-2-hydroxy-phenyl)methyl]-2-[4-(1-methyl-4-piperidyl)phenyl]-4,5-dihydrothieno[2,3-c]pyridin-7-one;dihydrochloride] | 2 | 6 | 280 | 490
2 | CN1CCC(c2ccc(-c3cc4c(=O)n(C(C(=O)Nc5nccs5)c5ccccc5)ccc4s3)cc2)CC1 (stereo not drawn) [Compound 005, 2-[2-[4-(1-methyl-4-piperidyl)phenyl]-4-oxo-thieno[3,2-c]pyridin-5-yl]-2-phenyl-N-thiazol-2-yi-acetamide] | 0.8 | 3 | 2040 | 1550
3 | CN1CCC(c2ccc(-c3ccc4c(c3)CC(=O)N(C(c3nc5ccccc5[nH]3)c3cc(F)ccc3O)C4)cc2)CC1 (stereo not drawn) [Compound 018, 2-[1H-benzimidazol-2-yl-(5-fluoro-2-hydroxy-phenyl)methyl]-6-[4-(1-methyl-4-piperidyl)phenyl]-1,4-dihydroisoquinolin-3-one] | 8 | 6 | 480 | 530
4 | CN1CCC(c2ccc(-c3cc4c(=O)n(C(c5ccccc5)c5nc6ccccc6[nH]5)cnn4c3)cc2)CC1 (stereo not drawn) [Compound 002, 3-((1H-Benzo[d]Imidazol-2-Yl)(Phenyl)Methyl)-6-(4-(1-Methylpiperidin-4-Yl)Phenyl)Pyrrolo [2,1-f][1,2,4]Triazin-4(3H)-One;Hydrochloride] | > 100 | > 100 | 2630 | 2240
5 | CN1CCC(c2ccc(-c3cc4ccn(C(c5nc6ccccc6[nH]5)c5cc(F)ccc5O)c(=O)c4s3)cc2)CC1 (stereo not drawn) [Compound 009, 6-[1H-benzimidazol-2-yl-(5-fluoro-2-hydroxy-phenyl)methyl]-2-[4-(1-methyl-4-piperidyl)phenyl]thieno[2,3-c]pyridin-7-one;dihydrochloride] | 0.6 | 2 | 20 | 70
6 | CN1CCC(c2ccc(-c3cc4c(s3)CCN(C(c3nc5ccccc5[nH]3)c3cc(F)ccc3O)C4=O)cc2)CC1 (stereo not drawn) [Compound 012, 5-[1H-Benzimidazol-2-Yl-(5-Fluoro-2-Hydroxy-Phenyl)Methyl]-2-[4-(1-Methyl-4-Piperidyl)Phenyl]-6,7-Dihydrothieno[3,2-c]Pyridin-4-One;Dihydrochloride] | 5 | 10 | 840 | 1700
